Data: patent publication US20180325914A1, “INCREASING STORAGE OF VITAMIN A, VITAMIN D AND/OR LIPIDS” (Salk Institute for Biological Studies, priority 2014, published 2018)

Legend:
C57BL/6J mice [1] = assay: CCl4 model of liver injury and fibrosis, preventive study; format: in vivo, mouse; settings: JQ1 50 mg/kg IP
Description: (§1) The animals were terminated 72 hours after the final CCl4 injection and whole livers were collected for histological, cytological, biochemical and molecular analyses.
5 μm sections of formalin-fixed liver were stained following standard hematoxylin-eosin (H&E) and Sirius Red methods and reviewed by a pathologist who was blinded to the experimental conditions. Fibrosis was scored using the Ishak modified histological activity index (HAI) scoring system. Liver fibrosis was also quantified using Image J software on 10 non-contiguous Sirius Red stained sections. […] fibrosis was quantified using hydroxyproline assay. All images were obtained using a high-resolution Leica DFC420 digital camera mounted on an Olympus microscope equipped with ×4/0.13, ×10/0.30, ×20/0.50 and ×40/0.75 UplanFL N plan objective lenses and processed with the Leica Application Suite. Tissue hydroxyproline content was measured using a kit from Biovision (K555-100).
Liver samples were deparaffinized and rehydrated in PBS. Following antigen retrieval with the target retrieval solution (Dako, Glostrup, Denmark), endogenous peroxidase activity was blocked by incubation with 0.3% hydrogen peroxide. […]

C57BL/6J mice [2] = assay: Serum alanine aminotransferase (ALT) assay in CCl4 model; format: in vivo, mouse; settings: preventive CCl4 model; JQ1 50 mg/kg IP
Description: as §1
The ALT activity in mice serum was measured using a kit from Thermo Scientific (TR71121).

[3] = tested on: pro-fibrotic gene expression (COL1A1) in LX-2 cells; assay: qRT-PCR of pro-fibrotic gene expression in LX-2 cells; settings: JQ1 500 nM, 16 hr vs DMSO

Cc1sc2c(c1C)C(c1ccc(Cl)cc1)=N[C@@H](CC(=O)OC(C)(C)C)c1nnc(C)n1-2 [JQ1, (S)-tert-butyl 2-(4-(4-chlorophenyl)-2,3,9-trimethyl-6H-thieno[3,2-f][1,2,4]triazolo[4,3-a][1,4]diazepin-6-yl)acetate]
liver fibrosis and markers of HSC activation (C57BL/6J mice [1]; CCl4/JQ1 co-treated vs CCl4 mice, four weeks, Sirius red, hydroxyproline, Acta2, Ishak score): dramatic reduction | CCl4-induced key fibrotic marker genes in liver (mRNA-Seq) (C57BL/6J mice [1]): significant suppression | liver injury due to CCl4 assessed by serum ALT (C57BL/6J mice [2]): not significantly impacted | repression of COL1A1 [3]: 4.5 fold
